Data published in ChEMBL document CHEMBL1649094, “First Selective CYP11B1 Inhibitors for the Treatment of Cortisol-Dependent Diseases” (ACS Med Chem Lett, 2011).

Experiments:
CYP17 = molecular target: T1, CYP17 (Homo sapiens, UniProt P05093); experiment: Inhibition of human recombinant CYP17 expressed in Escherichia coli at 2 uM using progesterone substrate; settings: recombinant human CYP17 expressed in Escherichia coli, probe progesterone
T1 sequence (P05093 whole entry): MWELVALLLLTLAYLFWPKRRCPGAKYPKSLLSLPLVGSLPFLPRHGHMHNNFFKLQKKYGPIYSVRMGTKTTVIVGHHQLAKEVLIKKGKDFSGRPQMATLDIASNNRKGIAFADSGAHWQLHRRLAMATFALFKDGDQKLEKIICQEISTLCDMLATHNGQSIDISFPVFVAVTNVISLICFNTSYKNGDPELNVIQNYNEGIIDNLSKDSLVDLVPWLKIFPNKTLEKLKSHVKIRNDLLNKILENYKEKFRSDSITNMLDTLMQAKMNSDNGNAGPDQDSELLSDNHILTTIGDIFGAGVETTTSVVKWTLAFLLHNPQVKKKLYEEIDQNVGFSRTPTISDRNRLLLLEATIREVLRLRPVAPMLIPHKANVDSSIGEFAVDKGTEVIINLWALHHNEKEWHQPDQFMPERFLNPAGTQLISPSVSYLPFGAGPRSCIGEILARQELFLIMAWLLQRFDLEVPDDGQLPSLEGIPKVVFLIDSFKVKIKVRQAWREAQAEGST

[1] = molecular target: T2, Cytochrome P450 11B1, mitochondrial (Homo sapiens, UniProt P15538); experiment: Inhibition of human CYP11B1 expressed in hamster V79MZ cells using 11-deoxycorticosterone substrate; type: cell-based
T2 sequence (P15538 whole entry): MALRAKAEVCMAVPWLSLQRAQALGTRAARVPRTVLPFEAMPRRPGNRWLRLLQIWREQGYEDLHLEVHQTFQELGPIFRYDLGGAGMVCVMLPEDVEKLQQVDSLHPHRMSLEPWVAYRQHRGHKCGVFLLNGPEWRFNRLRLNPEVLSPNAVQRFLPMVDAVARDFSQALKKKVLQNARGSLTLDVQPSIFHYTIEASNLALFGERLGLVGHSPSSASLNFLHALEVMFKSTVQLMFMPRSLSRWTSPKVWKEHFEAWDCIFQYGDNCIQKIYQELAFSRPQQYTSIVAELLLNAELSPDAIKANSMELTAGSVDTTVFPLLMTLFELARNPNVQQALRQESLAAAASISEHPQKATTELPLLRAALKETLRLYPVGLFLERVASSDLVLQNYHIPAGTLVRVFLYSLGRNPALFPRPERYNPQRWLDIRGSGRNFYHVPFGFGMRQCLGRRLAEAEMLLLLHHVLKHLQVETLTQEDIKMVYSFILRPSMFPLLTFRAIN

[2] = molecular target: T3, Cytochrome P450 11B2, mitochondrial (Homo sapiens, UniProt P19099); experiment: Inhibition of human CYP11B2 expressed in hamster V79MZ cells using 11-deoxycorticosterone substrate; type: cell-based
T3 sequence (P19099 whole entry): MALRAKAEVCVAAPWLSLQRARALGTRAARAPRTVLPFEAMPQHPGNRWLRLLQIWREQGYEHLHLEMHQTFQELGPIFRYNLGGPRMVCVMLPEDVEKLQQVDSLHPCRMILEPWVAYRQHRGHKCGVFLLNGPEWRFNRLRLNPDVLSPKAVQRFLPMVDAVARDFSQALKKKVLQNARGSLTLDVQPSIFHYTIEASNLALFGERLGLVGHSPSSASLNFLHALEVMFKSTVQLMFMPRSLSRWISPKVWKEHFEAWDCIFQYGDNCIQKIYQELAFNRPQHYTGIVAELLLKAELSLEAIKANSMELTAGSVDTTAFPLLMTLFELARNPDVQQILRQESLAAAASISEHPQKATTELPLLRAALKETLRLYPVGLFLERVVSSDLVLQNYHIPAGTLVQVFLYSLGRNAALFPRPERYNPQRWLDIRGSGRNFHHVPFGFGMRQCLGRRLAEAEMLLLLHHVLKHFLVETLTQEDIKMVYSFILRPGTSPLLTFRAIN

CYP19 (aromatase) = molecular target: T4, CYP19 (aromatase) (Homo sapiens, UniProt P11511); experiment: Inhibition of human placental microsomes CYP19 at 500 nM using androstenedione substrate; settings: human placental microsomes, probe androstenedione
T4 sequence (P11511 whole entry): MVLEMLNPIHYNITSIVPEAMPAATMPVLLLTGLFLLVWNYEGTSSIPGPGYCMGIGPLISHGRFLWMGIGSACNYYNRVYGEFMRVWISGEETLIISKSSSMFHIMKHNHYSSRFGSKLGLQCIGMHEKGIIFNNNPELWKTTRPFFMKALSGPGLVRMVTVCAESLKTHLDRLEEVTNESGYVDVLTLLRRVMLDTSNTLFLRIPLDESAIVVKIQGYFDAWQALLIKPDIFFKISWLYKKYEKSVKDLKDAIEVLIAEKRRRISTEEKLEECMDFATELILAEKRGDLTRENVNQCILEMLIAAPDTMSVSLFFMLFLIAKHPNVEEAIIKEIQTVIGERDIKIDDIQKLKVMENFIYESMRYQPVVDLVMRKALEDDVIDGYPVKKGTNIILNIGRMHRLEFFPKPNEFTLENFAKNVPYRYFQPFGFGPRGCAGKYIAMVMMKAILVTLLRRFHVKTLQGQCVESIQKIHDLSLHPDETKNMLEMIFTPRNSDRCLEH

Homo sapiens = organism: Homo sapiens; experiment: Selectivity index, ratio of IC50 for human CYP11B2 to IC50 for human CYP11B1

inhibition at 2 µM (CYP17) [%] | IC50 [1] [nM] | IC50 [2] [nM] | inhibition at 0.5 µM (CYP19 (aromatase)) [%] | Ratio IC50 (Homo sapiens) | SMILES
52 | 128 | 332 | 12 | 2.6 | c1ccc(-c2cc(Cn3ccnc3)cc(-c3ccccc3)c2)cc1
0 | 46 | 372 | 38 | 8.1 | c1ccc(-c2ccc(Cn3ccnc3)o2)cc1
